What all share (format): functional
In test [1] the test system is M14. Put plainly: Cytotoxicity against human M14 cells assessed as cell growth at 10^-5 M after 48 hrs by SRB assay. The settings on record: M14, 48 h, read-out: Activity. On the technique in general: Sulforhodamine B stains cellular protein and so reports cell mass.
For test [2], the system named is NCI-H322M. Put plainly: Cytotoxicity against human NCI-H322M cells assessed as cell growth at 10^-6 M after 48 hrs by SRB assay. The settings on record: read-out: Activity.
A further test relates to K562. Put plainly: Cytotoxicity against human K562 cells assessed as cell growth at 10^-4 M after 48 hrs by SRB assay. The settings on record: K562, 48 h, read-out: Activity.
A short description of test [3]: Cytotoxicity against human SF539 cells assessed as cell growth at 10^-6 M after 48 hrs by SRB assay. Conditions: SF-539, 48 h, read-out: Activity.
A short description of test [4]: Cytotoxicity against human MOLT4 cells assessed as cell growth at 10^-5 M after 48 hrs by SRB assay. Conditions: MOLT-4, 48 h, read-out: Activity.
Test [5] can be described thus: Cytotoxicity against human Caki1 cells assessed as cell growth at 10^-6 M after 48 hrs by SRB assay. Conditions: CAKI-1, 48 h, read-out: Activity.
Test [6] is described as follows: Cytotoxicity against human HOP92 cells assessed as cell growth at 10^-6 M after 48 hrs by SRB assay. Conditions: HOP-92, 48 h, read-out: Activity.
Test [7] in a line: Cytotoxicity against human OVCAR5 cells assessed as cell growth at 10^-7 M after 48 hrs by SRB assay. Conditions: OVCAR-5, 48 h, read-out: Activity.
A further test has as its system T47D. Put plainly: Cytotoxicity against human T47D cells assessed as cell growth at 10^-8 M after 48 hrs by SRB assay. The settings on record: read-out: Activity.
The subject of a further test is ACHN. The experiment in a line: Cytotoxicity against human ACHN cells assessed as cell growth at 10^-6 M after 48 hrs by SRB assay. The settings on record: read-out: Activity.
The nature of test [8]: Cytotoxicity against human SW620 cells assessed as cell growth at 10^-8 M after 48 hrs by SRB assay. The settings on record: SW-620, 48 h, read-out: Activity.
Test [9] can be described thus: Cytotoxicity against human UACC257 cells assessed as cell growth at 10^-6 M after 48 hrs by SRB assay. The settings on record: UACC-257, 48 h, read-out: Activity.
In test [10] the test system is SR. Put plainly: Cytotoxicity against human SR cells assessed as cell growth at 10^-7 M after 48 hrs by SRB assay. Conditions: read-out: Activity.
A short description of test [11]: Cytotoxicity against human LOXIMVI cells assessed as cell growth at 10^-6 M after 48 hrs by SRB assay. The settings on record: LOX IMVI, read-out: Activity.
A short description of test [12]: Cytotoxicity against human OVCAR5 cells assessed as cell growth at 10^-8 M after 48 hrs by SRB assay. The settings on record: OVCAR-5, 48 h, read-out: Activity.
For test [13], the system named is NCI-H460. Put plainly: Cytotoxicity against human NCI-H460 cells assessed as cell growth at 10^-5 M after 48 hrs by SRB assay. Conditions: NCI-H460, 48 h, read-out: Activity.
For test [14], the system named is 786-0. Put plainly: Cytotoxicity against human 786-0 cells assessed as cell growth at 10^-4 M after 48 hrs by SRB assay. The settings on record: 786-0, 48 h, read-out: Activity.
For test [15], the system named is SR. Put plainly: Cytotoxicity against human SR cells assessed as cell growth at 10^-5 M after 48 hrs by SRB assay. Conditions: read-out: Activity.
A short description of test [16]: Cytotoxicity against human UACC257 cells assessed as cell growth at 10^-5 M after 48 hrs by SRB assay. Conditions: UACC-257, 48 h, read-out: Activity.
Test [17] relates to 786-0. Put plainly: Cytotoxicity against human 786-0 cells assessed as cell growth at 10^-8 M after 48 hrs by SRB assay. The settings on record: 786-0, 48 h, read-out: Activity.
For a further test, the system named is MDA-MB-468. Put plainly: Cytotoxicity against human MDA-MB-468 cells assessed as cell growth at 10^-5 M after 48 hrs by SRB assay. Conditions: MDA-MB-468, 48 h, read-out: Activity.
Test [18] in a line: Cytotoxicity against human MOLT4 cells assessed as cell growth at 5 nM after 48 hrs by SRB assay. Conditions: MOLT-4, 48 h, read-out: Activity.
Test [19] can be described thus: Cytotoxicity against human PC3 cells assessed as cell growth at 0.5 uM after 48 hrs by SRB assay. Conditions: PC-3, 48 h, read-out: Activity.
The test system of another test is NCI-H226. The experiment in a line: Cytotoxicity against human NCI-H226 cells assessed as cell growth at 5 uM after 48 hrs by SRB assay. Conditions: NCI-H226, 48 h, read-out: Activity.
Test [20] can be described thus: Cytotoxicity against human OVCAR3 cells assessed as cell growth at 50 nM after 48 hrs by SRB assay. The settings on record: OVCAR-3, 48 h, read-out: Activity.
A short description of test [21]: Cytotoxicity against human HCT116 cells assessed as cell growth at 50 nM after 48 hrs by SRB assay. The settings on record: HCT-116, 48 h, read-out: Activity.
The next test deals with NCI-H522. The experiment in a line: Cytotoxicity against human NCI-H522 cells assessed as cell growth at 5 uM after 48 hrs by SRB assay. The settings on record: NCI-H522, 48 h, read-out: Activity.
Test [22] is described as follows: Cytotoxicity against human NCI-ADR-RES cells assessed as cell growth at 5 nM after 48 hrs by SRB assay. The settings on record: read-out: Activity.
Test [23] concerns NCI-H322M. The experiment in a line: Cytotoxicity against human NCI-H322M cells assessed as cell growth at 5 uM after 48 hrs by SRB assay. The settings on record: read-out: Activity.
A further test deals with SK-MEL-2. Put plainly: Cytotoxicity against human SK-MEL-2 cells assessed as cell growth at 0.5 uM after 48 hrs by SRB assay. The settings on record: SK-MEL-2, 48 h, read-out: Activity.
The subject of a further test is SK-MEL-5. Put plainly: Cytotoxicity against human SK-MEL-5 cells assessed as cell growth at 50 uM after 48 hrs by SRB assay. Conditions: SK-MEL-5, 48 h, read-out: Activity.
In test [24] the test system is NCI-H322M. The experiment in a line: Cytotoxicity against human NCI-H322M cells assessed as cell growth at 50 nM after 48 hrs by SRB assay. Conditions: read-out: Activity.
The subject of the next test is CCRF-CEM. The experiment in a line: Cytotoxicity against human CCRF-CEM cells assessed as cell growth at 5 nM after 48 hrs by SRB assay. Conditions: read-out: Activity.
Test [25] is described as follows: Cytotoxicity against human UO31 cells assessed as cell growth at 50 uM after 48 hrs by SRB assay. Conditions: UO-31, 48 h, read-out: Activity.
For the next test, the system named is MDA-MB-231. The experiment in a line: Cytotoxicity against human MDA-MB-231 cells assessed as cell growth at 50 nM after 48 hrs by SRB assay. Conditions: MDA-MB-231, 48 h, read-out: Activity.
A further test relates to KM12. The experiment in a line: Cytotoxicity against human KM12 cells assessed as cell growth at 5 nM after 48 hrs by SRB assay. Conditions: KM12, 48 h, read-out: Activity.
Test [26] can be described thus: Cytotoxicity against human HOP62 cells assessed as cell growth at 0.5 uM after 48 hrs by SRB assay. The settings on record: HOP-62, 48 h, read-out: Activity.
For test [27], the system named is 786-0. Put plainly: Cytotoxicity against human 786-0 cells assessed as cell growth at 5 nM after 48 hrs by SRB assay. Conditions: 786-0, 48 h, read-out: Activity.
A short description of test [28]: Cytotoxicity against human MOLT4 cells assessed as cell growth at 50 nM after 48 hrs by SRB assay. The settings on record: MOLT-4, 48 h, read-out: Activity.
In test [29] the test system is M14. The experiment in a line: Cytotoxicity against human M14 cells assessed as cell growth at 5 uM after 48 hrs by SRB assay. Conditions: M14, 48 h, read-out: Activity.
In test [30] the test system is NCI-H460. Put plainly: Cytotoxicity against human NCI-H460 cells assessed as cell growth at 50 nM after 48 hrs by SRB assay. Conditions: NCI-H460, 48 h, read-out: Activity.
The next test relates to U-251. The experiment in a line: Cytotoxicity against human U251 cells assessed as cell growth at 50 uM after 48 hrs by SRB assay. Conditions: U-251, 48 h, read-out: Activity.

The values that follow come from ChEMBL document CHEMBL3774317, “Design and synthesis of novel tamoxifen analogues that avoid CYP2D6 metabolism” (Eur J Med Chem, 2016).

`C/C(=C(/c1ccc(O)cc1)c1ccc(OCCN2CCCC2)cc1)c1ccccc1`: the growth at 10 µM in the test with M14 [1] is -58%; in test [4], 3%; in the test on NCI-H460 [13] it was -38%; in the test on SR [15] it was -25%; in test [16], -71%; with MDA-MB-468, -45%. In addition, the growth at 1 µM in the test with NCI-H322M [2] came to 90%; in [3], 91%; in [5], 81%; in test [6], 84%; with ACHN it was 93%; in [9], 104%. In addition, in test [11], the growth at 1 µM was found to be 92%. Besides, the growth at 100 µM in the test with K562 was -70%; in the test on 786-0 [14], -85%. The growth at 0.1 µM (in test [7]; with SR [10]) was 90% in each case. The growth at 0.01 µM in the test with T47D came to 62%; in test [8] it was 102%; in [12], 88%; in the test with 786-0 [17] it was 97%.
For the compound `CCCCCCCCCC(=O)Oc1ccc(/C(=C(/C)c2ccccc2)c2ccc(OCCN3CCCC3)cc2)cc1`, the growth at 0.005 µM in test [18] came to 97%; in test [22] it was 101%; with CCRF-CEM, 95%; with KM12, 101%; in the test with 786-0 [27], 102%. Further, the growth at 0.5 µM is 86% in [19], 99% with SK-MEL-2 and 81% in test [26]. For the same compound, the growth at 5 µM stood at 97% with NCI-H226, 96% in the test on NCI-H522, 85% in the test on NCI-H322M [23] and 87% in the test with M14 [29]. Further, the growth at 0.05 µM in test [20] is 104%; in [21], 95%; in the test with NCI-H322M [24] it was 93%; in the test on MDA-MB-231 it was 105%; in test [28], 91%; in the test with NCI-H460 [30], 102%. Also, the growth at 50 µM in the test on SK-MEL-5 was -100%; in [25] it was -85%; in the test with U-251 it was -89%.
